Results as given in patent US8741319B2, “Methods and compositions for treating anxiety disorders or symptoms thereof” (Pondera Biotechnologies Inc., priority 2009, dated 2014).
Entries after “also recorded” stand apart in the source; their conditions may differ.

Experiments:
[1] = test system: humans; experiment: Hot-water finger-immersion induced pain trials (Example 1); format: in vivo, human; settings: for undesirable side effects, first phase: 18 subjects, rolipram 50 μg, forskolin 200 mg, magnesium sulfate 2 g/5 g, caffeine 200 mg, each given within two-agent formulations; for side effects / complaints, second phase: 60 subjects, caffeine 50 mg, theophylline 300 mg, ULDN 5 μg, magnesium sulfate 750 mg, alone or combined; for pain thresholds and tolerance as compared to baseline latencies: index finger in 130° F. water, single dose, not blinded as to condition
Experimental: For these trials, a hot-water finger-immersion pain paradigm was used, measuring both pain threshold and tolerance. The index finger of the non-dominant hand was submerged in 130° F. water, and the time to the experience of pain (threshold) and the need to withdraw (tolerance) were measured. Baseline scores were compared to those obtained under experimental conditions. Experimental conditions were not blinded for this study.
For the preliminary part of this study, 18 subjects (10 males, 8 females; ages 27-86) were given each of the following single-dose formulations on separate days, to determine the best doses for pain reduction and side-effect profiles:
The same induced pain paradigm was used for the second phase of this study. 60 subjects (38 males, 22 females, ages 18-86), including all of the subjects in the first phase of the study, participated in the study. All subjects were administered each of the following formulations in a single dose, on separate days; while 18 of these subjects (10 males, 8 females) were given these formulations using a twice daily administration over the course of 3 consecutive days. The following formulations were administered to each subject to assess the effect of each agent, as compared to baseline, as well as the synergistic impact of co-treatment: […]

[2] = test system: Healthy volunteers; experiment: Cold-pressor induced pain study (Example 8A); format: in vivo, human; settings: 12 subjects, blinded, within-subject
Experimental: In addition to the hot-water finger immersion studies described above, two Jeio Tech cold-pressor testing units were purchased since this methodology represents the state-of-the art in induced pain research.
Following several preliminary multi-site trials using a wide variety of agents, doses, and formulations, a cold-pressor induced pain study was conducted in order to determine the impact of specific agents on the experience of pain threshold and tolerance. Healthy volunteers were recruited who were not taking any relevant medications or supplements, resulting in a total of 12 subjects (7 men, 5 women; ages 18-86). During the initial phase of this study, the following agents and doses were administered to subjects and pain threshold and tolerance latencies were assessed. […] Subjects were blinded as to each condition. Active agents were compared to each subject's baseline and placebo latencies, using a within-subject design. […]

[3] = test system: males with ADHD; experiment: Attention-Deficit Disorder case studies (Example 10); format: in vivo, human; settings: for improvement of ADHD behavior and attention: single case studies (males)
Experimental: To assess the therapeutic benefit of the novel cotreatment formulations of the invention with Attention-Deficit Disorders, three ongoing case studies are being conducted, one focused on the use of stimulants and the other based on “nutriceuticals.”
A person with severe uncontrolled ADHD has had serious problems with their inappropriate behaviors, emotions, and attitudes, both at school and at home, for more than 8 years. […] NAC (600 mg, twice daily) was added to the ongoing medication. […] The young person was able to sit quietly for longer periods of time and was clearly more cooperative and socially appropriate. […] Increased improvement has been observed over the past month, and the cotreatment formulation is being continued.
A person with moderate ADHD has had difficulties paying attention at school and cooperating at home. They have never been given prescription medications for the problem, and behavioral interventions have not been successful. […] Then, NAC (600 mg, twice daily), magnesium sulfate (500 mg, twice daily), and ginkgo biloba (120 mg, once daily) were added to the ALC. […] Progress has been steadily improving, using this novel cotreatment formulation during this 3 week trial, which is ongoing.
A person with severe ADHD has had problems in all aspects of their life due to this disorder. Despite above average intelligence, they were unable to complete high school. After dropping out of school, they were able to earn a GED. Over time, they were unable to hold regular employment. […] They will continue this co-treatment formulation, given its obvious benefits.

[4] = test system: patients in psychotherapy suffering from various Distress Dysfunction conditions; experiment: 10 month trial, agents alone vs combined, 19 psychotherapy patients (Example 5); settings: for therapeutic benefits on Distress Dysfunction symptoms: 19 patients, 2 weeks per agent or formulation, agents not identified to patients
Experimental: To determine the relative benefits of administering agents alone as compared to their combined synergistic benefits, a trial was conducted over a 10 month period with 19 patients in psychotherapy suffering from various Distress Dysfunction conditions, including anxiety, obsessive-compulsive disorders, depression, drug and alcohol addictions, behavioral addictions, psychogenic and neuropathic pain, eating disorders, and sexual dysfunctions.
Over the course of 8 weeks, each patient was administered all of the individual agents. During the next 8 weeks, each patient rotated through the following formulations, each given for a 2 week period: […]
All patients already on an SSRI or SNRI continued on this medication in combination with ULDN.

[5] = test system: outpatient psychotherapy patients with various forms of Distress Dysfunction; experiment: Clinical case studies, outpatient psychotherapy patients (Example 8B); format: in vivo, human; settings: 5 or 125 μg once daily within formulations
Experimental: All treatment was unblinded, and explained as novel formulations for Distress Dysfunction. […] Synergistic Enhancers were often included in the formulations, particularly SSRI and SNRI medications that the patients were typically taking prior to adding the experimental formulations (about 25% of patients). For those patients already on an SSRI or SNRI, the following daily doses were used, once the patient was stabilized on the co-treatment formulation: escitalopram (10 mg, once daily), fluoxetine (20 mg, once daily), citalopram (20 mg, once daily), or venlafaxine (75 mg, once daily). For most patients, this was either the same or lower dose than previously prescribed. If the patient was not already on an SSRI or SNRI, one or more Synergistic Enhancers were added to the formulation for more serious conditions, including 5HTP (50 mg, twice daily), SAMe (200 mg, once daily), PharmaGABA (200 mg, once daily), and tyrosine (500 mg, once daily) (about 18% of patients). Ten pain patients began the treatment program using a prescription narcotic pain medication. […] As an alternative to narcotic pain medications, NSAIDs, especially white willow bark (250 mg, twice daily) were added to the formulation (about 10% of patients). […]

[6] = test system: subjects; experiment: Hot-water finger-immersion pain threshold/tolerance, five subjects (Example 4); format: in vivo, human; settings: separate testing sessions

For `C=C[C@@]1(C)CC(=O)[C@]2(O)[C@@]3(C)[C@@H](O)CCC(C)(C)[C@@H]3[C@H](O)[C@H](OC(C)=O)[C@@]2(C)O1` [Forskolin], the “undesirable side effects, first phase” value [1] was “produced mild agitation for several subjects”.

In the case of `N[C@@H](CCC(=O)O)C(=O)O` [glutamic acid], the “pain threshold and tolerance latencies vs baseline and placebo, agents administered alone” value [2] is reported as “showed clear hyperalgesic effects when administered alone; also recorded: tended to result in shorter pain tolerance latencies”.

`COC(=O)C(c1ccccc1)C1CCCCN1` (centres unmarked) [methylphenidate] was tested, and the side effects ([3]; single case studies) was “produced mild restlessness, sleep difficulties, and reduced appetite; also recorded: several undesirable side-effects, including insomnia, anorexia, and agitation” and the “improvement of ADHD behavior and attention” value [3] was “only modest improvements; also recorded: almost no benefit”.

With `Cn1c(=O)c2c(ncn2C)n(C)c1=O` [caffeine] the “pain threshold and tolerance latencies vs baseline and placebo, agents administered alone” value [2] was “tended to result in shorter pain tolerance latencies”, the “undesirable side effects, first phase” value [1] was “produced mild agitation for several subjects” and the “side effects / complaints, second phase” value [1] was “complained of these symptoms when given these drugs alone”. For the same molecule, the “pain thresholds and tolerance as compared to baseline latencies” value [1] was “trend toward increased pain sensitivity (hyperalgesia)” and the increased distress symptoms ([4]; agent administered alone, once daily, 2 weeks) was “at least half of the patients reported some degree of increased distress symptoms”.

`O=C1CC[C@@]2(O)[C@H]3Cc4ccc(O)c5c4[C@@]2(CCN3CC2CC2)[C@H]1O5` [ULDN, naltrexone] was tested, and the “side effects / complaints, second phase” value [1] was “had neither benefit nor side effects”, the “consistency of benefit by naltrexone dose” value [5] was “the benefits from using the relatively higher dose (125 micrograms) were more consistent within and among patients” and the “therapeutic benefits on Distress Dysfunction symptoms” value (“therapeutic benefits” below) ([4]; once daily) was “nearly half of the patients experienced no effect from ULDN alone”. The “improvement in symptoms in patients on ongoing SSRI or SNRI medication” value ([4]; ULDN 5 μg added, patients on Lexapro, Prozac, Paxil or Effexor) was 10 patients had dramatic improvement in their symptoms.

For `O=S(=O)([O-])[O-].[Mg+2]` [magnesium sulfate], the “undesirable side effects, first phase” value [1] was “produced mild queasy feelings for several subjects” and the “side effects / complaints, second phase” value [1] was “had neither benefit nor side effects”.

`CC(=O)O[C@H](CC(=O)[O-])C[N+](C)(C)C` [acetyl-L-carinitine] was tested, and the “improvement of ADHD behavior and attention” value [3] was “no observable benefits”.

With `Cn1c(=O)c2[nH]cnc2n(C)c1=O` [theophylline] the “pain threshold and tolerance latencies vs baseline and placebo, agents administered alone” value [2] was “tended to result in shorter pain tolerance latencies”, the “side effects / complaints, second phase” value [1] was “complained of these symptoms when given these drugs alone” and the “pain thresholds and tolerance as compared to baseline latencies” value [1] was “trend toward increased pain sensitivity (hyperalgesia)”.

With `CC(=O)Oc1ccccc1C(=O)O` [aspirin] the “increase in pain threshold/tolerance (over baseline)” value [6] was “showed no change in pain threshold when administered alone” and the “pain threshold and tolerance latencies vs baseline and placebo, agents administered alone” value [2] was “no more effective than placebo in the cold pressor paradigm”.

`O=C(Nc1c(Cl)cncc1Cl)c1ccc(OC(F)F)c(OCC2CC2)c1` [roflumilast] was tested, and the “pain threshold and tolerance latencies vs baseline and placebo, agents administered alone” value [2] was “showed clear hyperalgesic effects when administered alone; also recorded: tended to result in shorter pain tolerance latencies”, the “therapeutic benefits” value ([4]; once daily) was “no therapeutic benefits were reported or observed” and the increased distress symptoms ([4]; human, in vivo) was “at least half of the patients reported some degree of increased distress symptoms”.

With `CC(C)Cc1ccc(C(C)C(=O)O)cc1` (centres unmarked) [ibuprophen] the “pain threshold and tolerance latencies vs baseline and placebo, agents administered alone” value [2] was “no more effective than placebo in the cold pressor paradigm”.

For `CC(=O)Nc1ccc(O)cc1` [acetaminophen], the “increase in pain threshold/tolerance (over baseline)” value [6] was “in order of greatest pain relief, was (3), then (2) then (1)”, the “pain threshold and tolerance latencies vs baseline and placebo, agents administered alone” value [2] was “no more effective than placebo in the cold pressor paradigm” and the “therapeutic benefits” value ([4]; once daily) was “no therapeutic benefits were reported or observed”. For the same molecule, the “maintenance treatment, remaining six months of the study” value ([4]; each patient on the formulation that worked best) was “used effectively by four pain patients” and the increased distress symptoms ([4]; human, in vivo) was “at least half of the patients reported some degree of increased distress symptoms”.

In the case of `COc1ccc2c3c1O[C@H]1C(=O)CC[C@@]4(O)[C@@H](C2)N(C)CC[C@]314` [oxycodone (5 mg), oxycodone], the “pain threshold and tolerance latencies vs baseline and placebo, agents administered alone” value [2] is reported as “consistently showed this effect” and the “pain threshold and tolerance latencies vs baseline and placebo, agents administered alone” value ([2]; listed as lower dose oxycodone) is reported as “did not generally exhibit analgesia on the cold pressor”.

For `COc1cccc(C2(O)CCCCC2CN(C)C)c1` (centres unmarked) [Tramadol, tramadol], the “pain threshold and tolerance latencies vs baseline and placebo, agents administered alone” value [2] was “did not generally exhibit analgesia on the cold pressor”.

With `COc1ccc(C2CNC(=O)C2)cc1OC1CCCC1` (centres unmarked) [Rolipram, rolipram] the “undesirable side effects, first phase” value [1] was “produced a queasy sensation for several of the subjects” and the side effects ([1]; one subject took 250 μg of rolipram) was “experienced nausea, vomiting, and diarrhea”.
